Source: patent US6861220B2, “Genetic screening methods” (Ramot University Authority for Applied Research & …, priority 1999, dated 2005)

Test system: Clone 12 cells (HGPRT-deficient HT1080 fibrosarcoma cells)
Test: Chemical synthetic lethality screen: retention of HGPRT-tpzGFP survival plasmid (tpzGFP/sphGFP fluorescence ratio) in microplates
Type: cell-based, human
Settings: for detection of chemical synthetic lethality (survival plasmid retention) in blind large-scale test: Clone 12 in 1200 wells, medium lacking selection, chemicals added at random together with guanine (FIG. 9)
Procedure: For pIS, selection in G418 (Calbiochem) was carried out at 400 microg/ml, while maintenance was at 50 microg/ml. For the HGPRT-tpzGFP survival plasmid, selection in hygromycin B (Sigma) was at 150 microg/ml while maintenance was at 50 microg/ml. […] GATA medium was DMEM with 10% dialyzed FCS, plus 3.5 microM guanine-HCI, 0.4 microM aminopterin, 16 microM thymidine and 35 microM adenine.
For fluorescent scanning, cells were trypsinized and distributed at 30,000 cells/well into 96 well microplates (TPP). Growth medium was changed twice a week and plates were grown for up to 75 days. […] Plates were prepared for scanning by replacement of medium in wells with Hank's balanced salt solution without phenol red. […] Plates were scanned with an FL600 microplate fluorescence reader using the KC4 software (Biotek Instruments). Excitation for sphGFP was at 380 nin with a bandpass of 20 nm, while emission was measured at 508 nm with a bandpass of 40 nm.
Excitation of tpzGFP was at 495 nm with a bandpass of 20 mn, while emission was measured at 535 nm with a bandpass of 40 nm. To avoid possible artifacts, all wells within a given experiment were assayed for the fluorescence of the two GFP mutants using fixed sensitivities. Integrated sphGFP was used as an internal control for the number of cells. This was achieved by dividing the relative fluorescence resulting from the episomal tpzGFP vector by the relative fluorescence for sphGFP for each well. This ratio was then divided by the average fluorescence ratio for cells maintained under hygromycin B or HAT selection, resulting in a value representing percent remaining fluorescence for each well as compared to wells maintained under continuous selection. The data points are an average for all wells and the calculated standard deviation. Cells were returned to growth medium immediately following scanning.
Its loss or retention can be determined by measuring its normalized fluorescence in a microplate reader. It was then necessary to test whether these features would enable the tracing of a synthetic lethality condition. […] Under these conditions, normal HGPRT-positive cells can use supplied guanine to produce GMP via the salvage pathway, and survive, while HGPRT-deficient cells die.

Compound	retention of the survival plasmid over time (Clone 12 cells, GATA medium + 12.5 microgram/ml MPA, entire time period (FIG. 6))	retention of the survival plasmid (tpzGFP to sphGFP fluorescence ratio), dose response (Clone 12 cells, GATA medium + MPA at successively higher concentrations, read after two weeks (FIG. 5))	detection of chemical synthetic lethality (survival plasmid retention) in blind large-scale test	retention of the survival plasmid (Clone 12 cells, 96 well plates, serial dilutions of drug and of guanine, three weeks (FIGS. 7, 8))
COc1c(C)c2c(c(O)c1C/C=C(\C)CCC(=O)O)C(=O)OC2 [MPA, mycophenolic acid]	retention of the survival plasmid for the entire time period	caused increasing retention of the survival plasmid	clearly detected	–
N[C@@H](CN(O)N=O)C(=O)O [alanosine]	–	–	not retained	–
NC(=O)c1ncn([C@@H]2O[C@H](CO)[C@@H](O)[C@H]2O)c1O [mizoribine]	–	–	clearly detected	caused retention of the survival plasmid
